Measurements as given in ChEMBL document CHEMBL1201862, “PubChem BioAssay data set” (2004).
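Five compound concentrations were applied to cells in 96-well plates for 48 hours; endpoints were derived by simple linear interpolation of the resulting dose-response curve. The concentration for 50% growth inhibition is given as GI50.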 Activity calls are given as the source filed them. Cut-off read from the data, not from the text of the source: active = GI50 up to about 1.1 µM and inactive = higher.

Experiments:
Experiment in all cases: NCI tumour cell line growth inhibition, 48 h
ACHN = tested on: ACHN
LXFL 529 = tested on: LXFL 529
DLD-1 = tested on: DLD-1
SR = tested on: SR
MDA-MB-435 = tested on: MDA-MB-435
MDA-N = tested on: MDA-N
BT-549 = tested on: BT-549
786-0 = tested on: 786-0
RXF 631 = tested on: RXF 631

| Compound | GI50 (ACHN) | GI50 (DLD-1) | GI50 (SR) | GI50 (MDA-MB-435) | GI50 (MDA-N) | also measured |
| --- | --- | --- | --- | --- | --- | --- |
| CC(=O)c1c(P(=O)(OC(C)C)OC(C)C)nn(-c2ccc([N+](=O)[O-])cc2)c1C | > 100 µM (inactive) | > 100 µM (inactive) | > 100 µM (inactive) | – | – | GI50 (LXFL 529): > 100 µM (inactive) |
| O=C1c2cccc3cc4ccccc4c(c23)C(=O)N1CCNCCNCCNCCN1C(=O)c2cccc3cc4ccccc4c(c23)C1=O | – | < 0.014 µM (active) | – | – | – | – |
| NC(CCP(=O)(O)CCC1C=CC=CC1)C(=O)O (stereo unspecified) | > 100 µM (inactive) | – | > 100 µM (inactive) | > 100 µM (inactive) | > 100 µM (inactive) | GI50 (BT-549): > 100 µM (inactive) |
| Cc1cccc2nc3cccc(C(=O)NCCN(C)C)c3nc12 | 0.41 µM (active) | 0.444 µM (active) | – | – | – | GI50 (786-0): 0.647 µM (active) |
| Cc1sc2nc3n(c(=O)c2c1C)N=C(c1ccc([N+](=O)[O-])cc1)CS3 | > 100 µM (inactive) | – | > 100 µM (inactive) | > 100 µM (inactive) | > 100 µM (inactive) | GI50 (786-0): > 100 µM (inactive); GI50 (BT-549): 56.5 µM (inactive) |
| CSc1nc(NC2OC(CO)C(O)C(O)C2O)c(N)c(=O)[nH]1 (stereo unspecified) | – | > 100 µM (inactive) | – | – | – | – |
| COc1ccc2c(c1O)-c1cc(O)cc3c1[C@@H](C2)N(C)CC3 | – | 43.2 µM (inactive) | – | – | – | – |
| Cc1ccc(C)c(C(=O)CC2OC(O)C(Cl)C2Cl)c1 (stereo unspecified) | 42.5 µM (inactive) | 17.1 µM (inactive) | 44 µM (inactive) | – | – | GI50 (LXFL 529): 17.4 µM (inactive) |
| CC(=O)Oc1cc2c(cc1OC(C)=O)OCC(c1ccccc1)C2 (stereo unspecified) | – | 9.31 µM (inactive) | – | – | – | – |
| O=C(c1ccccc1)c1ccc2n[se]nc2c1 | 7.03 µM (inactive) | 50 µM (inactive) | – | – | – | GI50 (RXF 631): 18.8 µM (inactive); GI50 (LXFL 529): 69.8 µM (inactive) |
| Nc1cccc2c1C1=NNC(=O)CC1C2 (stereo unspecified) | – | > 100 µM (inactive) | – | – | – | – |
| Cn1c(=O)[nH]c2nncnc2c1=O | – | 384 µM (inactive) | – | – | – | – |
| N=C(CSS(=O)(=O)O)NC1CC2CCC1C2 (stereo unspecified) | > 100 µM (inactive) | – | > 100 µM (inactive) | 95.5 µM (inactive) | > 100 µM (inactive) | GI50 (786-0): > 100 µM (inactive); GI50 (BT-549): > 100 µM (inactive) |
| CC(=O)OC/C=C/Cn1ncc(=O)[nH]c1=O | > 100 µM (inactive) | – | – | > 100 µM (inactive) | > 100 µM (inactive) | – |
| N/N=C1\C(OC(=O)Nc2cccc(Cl)c2)=Nc2ccccc21 | 8 µM (inactive) | – | 11.4 µM (inactive) | 8.57 µM (inactive) | 3.12 µM (inactive) | GI50 (786-0): 6.64 µM (inactive); GI50 (BT-549): 7.96 µM (inactive) |
| CSc1nc(CO)c(CO)n1C | – | > 100 µM (inactive) | – | – | – | – |
| CCOC(=O)CCC(NC(=O)OCc1ccccc1)C(=O)NC(CCC(=O)OCC)C(=O)NNC(=O)OC(C)(C)C (stereo unspecified) | – | – | > 100 µM (inactive) | > 100 µM (inactive) | > 100 µM (inactive) | GI50 (BT-549): > 100 µM (inactive) |
| O=C(Nc1ccccc1F)c1c(O)nc2sccn2c1=O | > 10 µM (inactive) | – | > 10 µM (inactive) | > 10 µM (inactive) | > 10 µM (inactive) | – |
